“Also recorded” adds a separate entry of the source. Where two headings read alike, the source gives them in different places. Marks after values point to notes of the source that are not given here. Values belong to the compound of their own block, whether it stands above or below them.
Experiments:
[1] = system: HIV‐1; settings: cited from earlier work
[2] = target: T1, HGCN5 Brd (Homo sapiens, UniProt Q92830); test: Isothermal titration calorimetry (ITC), human GCN5 Brd; assay type: binding
T1 construct: made in house
T1 sequence (Q92830 728-832 limits assumed): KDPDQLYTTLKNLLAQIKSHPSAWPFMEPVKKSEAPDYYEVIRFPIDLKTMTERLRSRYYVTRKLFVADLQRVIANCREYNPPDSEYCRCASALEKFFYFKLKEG
Description: (§1) Isothermal Titration Calorimetry (ITC)
(§2) Experiments were carried out on a Nano-ITC Standard Volume Instrument (TA Instruments). All experiments were carried out at 25 °C in 20 mM HEPES pH 7.5, 150 mM NaCl, 0.5 mM TCEP and 5% glycerol. Protein solutions were buffer exchanged by gel filtration. The titrations were conducted using an initial injection of 2 μL followed by 32 injections of 8 μL. Background dilution heat was substracted from each experiment. Thermodynamic parameters were calculated using ΔG = ΔH-T ΔS = -RTlnKB , where KD = 1/KB. ΔG, ΔH and ΔS are changes in free energy, enathalpy and entropy resepectively. Independent single site binding models were employed in data analysis.
Supplemental Figure 2. ITC trace of L-Moses and PCAF Brd
(§3) Supplemental Figure 3. ITC trace of D-Moses and PCAF Brd […]

[3] = target: T2, GCN5L2 (Homo sapiens, UniProt Q92830); test: Differential scanning fluorimetry (DSF), GCN5 (GCN5L2) Brd; assay type: binding; settings: compound 10 μM
T2 construct: made in house
T2 sequence (Q92830 728-832 limits assumed): T1 sequence (Q92830 728-832 limits assumed)
Description: (§4) Protein Expression and Purification
(§5) Human bromodomains were cloned, expressed and purified as previously described.[1]
(§6) Differential Scanning Fluorimetry (DSF)
(§7) Thermal melting points were recorded using an Mx3005p Real Time PCR Machine (Stratagene).
(§8) Subject proteins were buffered in 10 mM HEPES at pH 7.5, 500 mM NaCl and assayed in a 96-well […]
(§9) plate at a final concentration of 2 μM in 20 μL volume. Compounds were then added to a final […]
(§10) concentration of 10 μM. SPYRO Orange (Molecular Probes) was used as a fluorescent probe at a […]
(§11) dilution of 1:1000. Excitation and emission filters for the SPYRO-Orange dye were set to 465 nm and […]
(§12) 590 nm, respectively. The temperature was raised with a step of 3 °C/min from 25 °C to 96 °C and […]
(§13) fluorescence readings were taken at each interval. Data was analysed as previously described.[2]
(§14) Bromodomain affinity selectivity panel of (S)-11
(§15) Supplemental Figure 1. DSF Selectivity panel of (S)-11 against 48 human Bromodomains. […]
(§16) ┼Mean ΔTm ± SEM (number of measurements= 2). Compound concentration: 10 μM […]
(§17) (1 picture or pasted object on this page, not shown here)

[4] = Metabolic stability in mouse liver microsomes; assay type: in vitro ADME; settings: for half-life: mouse, liver microsomes, read-out: t1/2 mouse liver microsomes; for microsomal CLint: mouse liver microsomes, n 5, read-out: CLint (μL/min/mg protein) mouse
Description: (§18) In vitro Metabolism Studies
(§19) Metabolic stability studies were carried out exposing nominated compounds to samples of liver microsomes. Compounds were analysed by LC-MS for loss of compound at 0, 5, 15, 30 and 45 minute time points. The rate of metabolic degradation of compounds was used to calculate CLint, SE CLint, t1/2 (summarised in supplemental table 2.)
(§20) Supplemental Table 4. In vitro metabolic stability of compounds DL-45/DL-Moses and 39 Compound Metbolic Stability (Human) Metbolic Stability (Mouse) […]

[5] = system: peripheral blood mononuclear cells (PBMC); test: Cytotoxicity in peripheral blood mononuclear cells (PBMC); assay type: cell-based; settings: 10 μM for 24 hours
Description: (§21) obtained from 5 healthy donors. PBMC were cultured either with D-Moses or L-Moses at concentrations of 0.1, 1 and 10 μM or with a control (DMSO) for 24 hours. Viability of PBMC were then checked using LIVE/DEAD Fixable Aqua Dead Cell Stain Kit (ThermoFisher Scientific).
(§22) High Throughput Time Resolved Fluorescence Assay (HTRF)
(§23) HTRF assay was carried out using a Cisbio Epigenous kit B (62BDBPEH) using the standard assay protocol with GST-PCAFBRD.[3] Final assay concentrations: GST-PCAFBRD (20 nM), SA-XL665 (62.5 nM), α-GST donor (62.5 nM), compound 46 (500 nM). Ki was calculated using the Cheng-Prussof equation […]
(§24) Recombinant PfGCN5 (bromodomain only) was expressed in E. coli and purified using a previously described system. The protein crystallized with the compound L-45 at 293 K in 0.1M CaCl2, 30% PEG 8k, 0.2 M NH4SO4. The concentrations of the protein sample and the compound were 10 mg/ml […]
(§25) X-ray diffraction data for the crystal was collected at 100 K at the beamline 08ID-1 of the Canadian Macromolecular Crystallography Facility. The dataset was processed using the HKL-2000 suite, and the structure solved using Phaser, a component of the CCP4 suite with molecular replacement model 4QNS. […]

[6] = target: T3, PCAF Brd (Homo sapiens, UniProt Q92831); test: Isothermal titration calorimetry (ITC), PCAF Brd; assay type: binding
T3 construct: Human bromodomains were cloned, expressed and purified as previously described; made in house
T3 sequence (Q92831 723-827 limits assumed): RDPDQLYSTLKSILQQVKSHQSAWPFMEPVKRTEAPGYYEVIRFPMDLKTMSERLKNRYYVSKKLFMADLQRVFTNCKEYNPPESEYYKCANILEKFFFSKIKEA
Description: as §1, §2, §3

[7] = target: T4, GST-PCAFBRD (Homo sapiens, UniProt Q92831); test: HTRF assay, displacement of biotinylated compound 46 from GST-PCAF Brd; assay type: binding
T4 construct: Final assay concentrations: GST-PCAFBRD (20 nM)
T4 sequence (Q92831 723-827 limits assumed): T3 sequence (Q92831 723-827 limits assumed)
Description: as §21, §22, §23, §24, §25

[8] = target: T5, PCAF‐Brd histone H3.3 interaction (Homo sapiens, UniProt Q92831); test: nanoBRET target engagement assay, PCAF-Brd / histone H3.3 in HEK293 cells; assay type: cell-based; settings: live HEK293 cells; compounds 5 μM, 18 h
T5 construct: NanoLuciferase fusion of the isolated bromodomain of PCAF; expressed in transfected cells; host or cells: HEK293
T5 sequence (Q92831 723-827 limits assumed): T3 sequence (Q92831 723-827 limits assumed)
Description: page 48: NanoLuciferase Bioluminescent Resonance Energy Transfer (NanoBRET) Assay Methods HEK293 cell (8 x 105) were plated in each well of a 6-well plate and co-transfected with Histone H3.3- HaloTag (NM_002107) and a NanoLuciferase fusion of the isolated bromodomain of PCAF. Twenty hours post-transfection, cells were collected, washed with PBS, and exchanged into media containing phenol red-free DMEM and 4% FBS in the absence (control sample) or the presence (experimental sample) of 100 nM NanoBRET 618 fluorescent ligand (Promega). Cell density was adjusted to 2 x 10^5 cells/ml and then re-plated in a 96-well assay white plate (Corning Costar #3917). […] Readings were performed within 5 minutes using a Glo-MAX Discover instrument (Promega) equipped with 450/8 nm bandpass and 600 nm longpass filters with a 0.3 sec reading setting. A corrected BRET ratio was calculated and is defined as the ratio of the emission at 600 nm/450 nm for experimental samples (i.e. those treated with NanoBRET fluorescent ligand) subtracted by and the emission at 600 nm/450 nm for control samples (not treated with NanoBRET fluorescent ligand). BRET ratios are expressed as milliBRET units (mBU), where 1 mBU corresponds to the corrected BRET ratio multiplied by 1000. […] Compounds were analysed by LC-MS for loss of compound at 0, 5, 15, 30 and 45 minute time points. […]

[9] = Metabolic stability in human liver microsomes; assay type: in vitro ADME; settings: for half-life: human, liver microsomes, read-out: t1/2 human liver microsomes; for microsomal CLint: human liver microsomes, n 5, read-out: CLint (μL/min/mg protein) human
Description: as §18, §19, §20

[10] = Permeability in MDCK-MDR1 cells; assay type: in vitro ADME; settings: dog, direction not given
[11] = target: T3, PCAF Brd; test: Differential scanning fluorimetry (DSF), PCAF Brd; assay type: binding; settings: compound concentration 100 μM
[12] = system: PCAF Brd; settings: cited from earlier work
[13] = system: 48 human Brds; test: DSF selectivity panel of 48 human bromodomains; assay type: binding; settings: compound 10 μM
[14] = target: T3, PCAF Brd; test: Differential scanning fluorimetry (DSF), PCAF Brd; assay type: binding; settings: for ΔT m [°C] PCAF (DSF): compound concentration 10 μM
Description: as §4, §5, §6, §7, §8, §9, §10, §11, §12, §13, §14, §15, §16, §17

[15] = system: PCAF; set-up: method as in earlier work; settings: read-out: PCAF AlphaLISA IC50; cited from earlier work
[16] = Kinetic solubility; assay type: physicochemical; settings: kinetic from dmso stock
[17] = system: MDCK‐MDR1 cells; test: Permeability in MDCK-MDR1 cells; assay type: in vitro ADME
[18] = Table 2, read-out: K D (nM) (ITC) PCAF Brd
[19] = Supplemental Table 3, compound concentration 30 μM, protein concentration 280-320 μM, read-out: PCAF KD (μM) (ITC)
[20] = Table 1, read-out: K D [μM] (ITC) PCAF Brd
[21] = read-out: GCN5L2 ΔTm (°C) (DSF)

ΔT m [°C] PCAF (DSF) [11]: 8.5^[b] °C
Kd [6, 19]: 7980 nM
Kd [6, 20]: 8000 ± 650 nM
SMILES: Cc1nnc2c3ccccc3c(NCCN(C)C)nn12 [Compound 7]

ΔTm at 10 µM ([3]; Supplemental Table 1, number of measurements 2, read-out: GCN5L2 ΔTm (°C), mean ± SEM): 3.7 °C
ΔTm at 10 µM [3, 21]: 4 °C
Kd [6, 19]: 284 nM
Kd [6, 20]: 280 ± 29 nM
ΔTm at 10 µM ([14]; Supplemental Table 1, number of measurements 2, compound 10 μM, read-out: PCAF ΔTm (°C), mean ± SEM): 5.4 °C
ΔT m [°C] PCAF (DSF) [14]: 7.4 °C
SMILES: Cc1nnc2c3ccccc3c(N[C@@H](C)CN(C)C)nn12 [(S)‐11]
selectivity in DSF panel of 48 human Brds [13]: no observable activity against other Brds

ΔTm at 10 µM [3, 21]: 4.4 °C
microsomal CLint [4]: 21 µL/min/mg
half-life [4]: 65 min
Kd [6, 18]: 195 ± 23 nM
microsomal CLint [9]: 29 µL/min/mg
half-life [9]: 48 min
ΔT m [°C] PCAF (DSF) [14]: 8.3 °C
SMILES: Cc1nnc2c3ccccc3c(N[C@@H](C)[C@H](c3ccc(F)cc3)N(C)C)nn12 (relative stereo) [Compound 39]

Kd ([7]; GST-PCAF Brd, read-out: KD of compound 46 used for Cheng-Prusoff): 0.4 µM
SMILES: Cc1nnc2c3ccccc3c(NCC(NCCCCNC(=O)CCOCCOCCOCCOCCNC(=O)CCCCC3SCC4NC(=O)NC43)c3ccccc3)nn12 (stereo not shown) [compound 46, reference compound]

ΔTm at 10 µM [3, 21]: 1 °C
Kd [6, 20]: 7300 ± 1100 nM
ΔT m [°C] PCAF (DSF) [14]: 4.6 °C
SMILES: Cc1nnc2c3ccccc3c(NCC(C)N(C)C)nn12 (stereo not shown) [Compound 15]

Kd [6, 19]: > 30000 nM
displacement of PCAF‐Brd from H3.3 in nanoBRET assay [8]: no effect
SMILES: Cc1nnc2c3ccccc3c(NC(C)C(c3ccccc3)N(C)C)nn12 (stereo not shown) [D‐45]
K D (nM) (ITC) PCAF Brd ([6]; Table 2): no observable binding; also recorded: Inactive

ΔTm at 10 µM [3, 21]: 2.4 °C
Kd [6, 19]: 168 nM
ΔT m [°C] PCAF (DSF) [14]: 7.3 °C
SMILES: Cc1nnc2c3ccccc3c(N[C@H]3CCC[C@@H]3N(C)C)nn12 [Compound 76]

Continued, compound first:

SMILES: Cc1ccc(NCCCN)c([N+](=O)[O-])c1 [Compound 1]
EC50 ([1]; ref 8c, read-out: HIV-1 EC50 (disrupting HIV‐1 replication)): 2.8 µM

SMILES: Cc1nnc2c3ccccc3c(N[C@@H](C)[C@H](c3ccccc3)N(C)C)nn12 [L‐45]
Kd [2]: 0.55 µM
GCN5L2 ΔTm (°C) (DSF) ([3]; 10 µM): +3.6 °C
half-life [4]: 38 min
cytotoxicity in PBMC [5]: no observable cytotoxicity
Kd [6, 18]: 126 ± 15 nM
Ki [7]: 0.047 µM
displacement of PCAF‐Brd from H3.3 in nanoBRET assay [8]: single digit μM concentration
half-life [9]: 40 min
Papp ([10]; MDCK-MDR1, first of 59/70, read-out: MDCK-MDR1 permeability, first value of the pair): 59 ×10⁻⁶ cm/s
Papp ([10]; MDCK-MDR1, second of 59/70, read-out: MDCK-MDR1 permeability, second value of the pair): 70 ×10⁻⁶ cm/s

SMILES: NCCCNCc1ccc(NCCCN)[n+]([O-])c1 [Compound 2]
EC50 ([1]; read-out: HIV-1 EC50): 11.5 µM
IC50 [12]: 0.93 µM

SMILES: CC(C)C[C@H]1C[C@@H](Nc2cnn(C)c(=O)c2Cl)CN(C)C1 [Compound 3]
IC50 [15]: 0.013 µM

SMILES: Cc1nnc2c3ccccc3c(N[C@@H](C)[C@H](c3ccccc3)N(C)C)nn12 (relative stereo) [Compound 45]
ΔTm at 10 µM [3, 21]: 5 °C
microsomal CLint [4]: 37 µL/min/mg
Kd [6, 18]: 168 ± 27 nM
solubility kinetic [16]: > 200 µM
microsomal CLint [9]: 35 µL/min/mg
efflux in MDCK‐MDR1 cells [17]: low efflux
permeability in MDCK‐MDR1 cells [17]: good
ΔT m [°C] PCAF (DSF) [14]: 7.9 °C

Source: PMC5412877, “Discovery of a PCAF Bromodomain Chemical Probe” (Angewandte Chemie (International Ed. in English), 2016)
